From patent EP4100520B1, “SYSTEM AND METHOD OF TR[…] STATES INFORMATION, […] MACR[…]” (Beznosiuk, Jaroslaw, priority 2020, dated 2021)

How the values were obtained:
enolase = target: T1, enolase (Homo sapiens, UniProt P13929); test: Electrophoresis to detect high molecular weight advanced glycation products (AGE) of enolase; conditions: 3 h glycation
T1 construct: Enolase was isolated from human muscle tissue using own method; from tissue; host or cells: human muscle tissue
Protocol: The glycation process was interrupted after 3 hours by adding an aqueous solution of lysine at a concentration of 4 mg/ml to methylglyoxal samples (excess lysine bound unreacted methylglyoxal).
In order to detect the presence of high molecular weight products of advanced glycation of enolase (AGE), samples of each mixture were electrophoresized. Electrophoresis conditions according to [Pietkiewicz J. et al., 2011, Protein J. 30 (3):149-158]. 12 ug of protein from the analyzed samples was applied to the gel paths.

human muscle enolase = target: T2, human muscle enolase (Homo sapiens, UniProt P13929); test: Enolase glycation with methylglyoxal: specific activity of enolase (absorbance increase at 240 nm, 2-PGA to PEP); type: biochemical; conditions: for K(1)i / K(1)0 / K(1)i / K(2)i: K1, without entanglement elements; for K(1)i / K(1)0 / Wi / W0: activity relative to own initial value; for Wi / W0 / Wi / K(2)i: W, with entanglement elements
T2 construct: Enolase was isolated from human muscle tissue using own method; from tissue; host or cells: human muscle tissue
T2 sequence (P13929 whole entry): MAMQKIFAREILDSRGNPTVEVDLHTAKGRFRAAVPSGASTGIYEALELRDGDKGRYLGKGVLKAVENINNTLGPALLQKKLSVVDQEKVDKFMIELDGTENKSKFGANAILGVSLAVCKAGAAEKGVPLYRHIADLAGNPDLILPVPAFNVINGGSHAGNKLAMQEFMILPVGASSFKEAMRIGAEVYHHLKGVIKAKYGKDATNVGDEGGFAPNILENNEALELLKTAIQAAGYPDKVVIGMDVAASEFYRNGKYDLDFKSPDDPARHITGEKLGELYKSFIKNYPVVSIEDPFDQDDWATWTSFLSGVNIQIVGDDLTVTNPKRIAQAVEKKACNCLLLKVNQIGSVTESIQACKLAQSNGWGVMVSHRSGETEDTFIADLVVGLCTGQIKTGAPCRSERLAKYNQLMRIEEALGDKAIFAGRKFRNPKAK
Protocol: Methylglyoxal was chosen as an enolase modifying agent because it is formed in the body mainly as a product of defective glycolysis or in the lipid peroxidation process, as well as a result of disorders of defence systems against carbonyl and oxidative stress. Simultaneously, enolase glycation was performed without exposure to the second entanglement elements 9, 9a of the second and third pair of entanglement elements. The second control was a sample of enolase that was not glycated and not treated with the second entanglement elements 9, 9a of the second and third pair of entanglement elements.
The second entanglement elements 9, 9a of the second and third pair of entanglement elements were aluminium plates, 1 cm by 2 cm in size, which were kept for 30 min at room temperature prior to testing. Enolase was isolated from human muscle tissue using own method (Bednarz-Misa I, Pietkiewicz J, et al., 2009. Adv.Clin.Exp.Med. Vol.18 no.1; p.71-78). The enzyme stock solution was a preparation of 7.5 mM of imidazole-HCl, pH 6.8, in stabilizing buffer, containing 2.5 mM of MgSO4, 50 mM of NaCl, 50% of glycerol (formulation stored at 4°C). The concentration of enolase in the stock solution Ro was 8 mg/ml (87 µM), while the enzyme specific activity was 25 IU/mg. In glycation mixtures, the enzyme concentration was 1 mg/ml (Ro diluted 8x with PBS buffer, pH 7.4).
In the experiment, a standard test buffer of 50 mM imidazole-HCl pH 6.8.3 mM MgSO4, 0.4M KCI and a substrate of 2-PGA (sodium salt) dissolved in H2O - a stock solution R0 at a concentration of 58.5 mM was used. 2-PGA in the enzyme assay was used at a standard concentration of 1 mM.
Protein concentration was determined spectrophotometrically by measuring the absorbance of enolase solution at 280 nm wavelength using quartz cuvettes. In the present system, quartz cuvettes constituted the end tanks 10 made of polar dielectric 5. Enolase activity was determined by monitoring in a Jasco UV-Vis V-530 spectrophotometer within 60 seconds, the increase in absorbance of the test solution at 240 nm wavelength (a measure of reaction product production, PEP). The specific activity of the enzyme was expressed in international units relative to 1 mg of protein (Bednarz-Misa I, Pietkiewicz J, et al., 2009. Adv.Clin.Exp.Med. 18(1);71-78).
Two glycation systems were prepared using a large excess of methylglyoxal in relation to enolase (ratio 1:300 mol:mol) - in accordance with the conditions according to [Pietkiewicz J. et al., 2011, Protein J. 30 (3):149-158]: • a) Substantive test: glycation of enolase treated with second entanglement elements 9, 9a of the second and third pair of entanglement elements.
175 µl of PBS pH 7.4 buffer were placed in the quartz cuvette, 20 µl of enolase stock solution and 5.5 µl of 0.8% aqueous methylglyoxal solution were added. In such a system, the effect of quantum information transmitted from source medium 2 (silicon monocrystal) on the modification of the glycolysis/gluconeogenesis enzyme enolase by methylglyoxal as a reactive glycating agent was studied.
In order to transmit quantum information from the source medium 2, the mixture was subjected for 3 hours to two second entanglement elements 9, 9a of the second and third pair of entanglement elements (which adhered to both sides of the cuvette). The system was kept at room temperature. b) Control test 1: glycation of enolase not treated with second entanglement elements 9, 9a of the second and third pairs of entanglement elements.
The reaction system was prepared as a substantive test (a). Incubation at room temperature occurred at the same time, without contact with the second entanglement elements 9, 9a of the second and third pair of entanglement elements (3 m distance from the substantive test). c) Control test 2: Unmodified enolase, not treated with second entanglement elements 9, 9a of the second and third pair of entanglement elements. […]

[1] = relative to unmodified enolase control K2 at same time, 1 h
[2] = relative to unmodified enolase control K2 at same time, 2 h
[3] = relative to unmodified enolase control K2 at same time, 3 h

T1 sequence (P13929 whole entry): as above

With `CC(=O)C=O` [methylglyoxal] the “AGE of Mw 180 and Mw 230 kDa” value (enolase; control test, glycation in the absence of entanglement elements (path 2, fig. 6)) was “observed”, the “AGE of Mw 180 and Mw 230 kDa” value (enolase; substantive test treated with entanglement elements (path 1, fig. 6)) was “observed” and the Activity (human muscle enolase; Control test 1 (K1): enolase + methylglyoxal (1:300 mol:mol), without entanglement elements, incubation time 0 h, room temperature) was 24.6 IU/mg. For the same molecule, the Activity (human muscle enolase; Control test 1 (K1): enolase + methylglyoxal, without entanglement elements, incubation time 1 h) was 21.37 IU/mg, the Activity (human muscle enolase; Control test 1 (K1): enolase + methylglyoxal, without entanglement elements, incubation time 2 h) was 19.15 IU/mg and the Activity (human muscle enolase; Control test 1 (K1): enolase + methylglyoxal, without entanglement elements, incubation time 3 h) was 17.64 IU/mg. The “K(1)i / K(1)0” value (human muscle enolase; 0 h) was 100%, the “K(1)i / K(1)0” value (human muscle enolase; 1 h) was 86.9% and the “K(1)i / K(1)0” value (human muscle enolase; 2 h) was 77.85%. For the same molecule, the “K(1)i / K(1)0” value (human muscle enolase; 3 h) was 71.7%, the “K(1)i / K(2)i” value (human muscle enolase; activity relative to unmodified enolase control K2 at same time, 0 h) was 99.6% and the “K(1)i / K(2)i” value (human muscle enolase; [1]) was 93.8%. For the same molecule, the “K(1)i / K(2)i” value (human muscle enolase; [2]) was 88.8%, the “K(1)i / K(2)i” value (human muscle enolase; [3]) was 90.6% and the Activity (human muscle enolase; Substantive test (W): enolase + methylglyoxal + entanglement elements, incubation time 0 h, room temperature) was 29.22 IU/mg. For the same molecule, the Activity (human muscle enolase; Substantive test (W): enolase + methylglyoxal + entanglement elements, incubation time 1 h) was 25.78 IU/mg, the Activity (human muscle enolase; Substantive test (W): enolase + methylglyoxal + entanglement elements, incubation time 2 h) was 24.12 IU/mg and the Activity (human muscle enolase; Substantive test (W): enolase + methylglyoxal + entanglement elements, incubation time 3 h) was 23.4 IU/mg. The “Wi / W0” value (human muscle enolase; 0 h) was 100%, the “Wi / W0” value (human muscle enolase; 1 h) was 88.2% and the “Wi / W0” value (human muscle enolase; 2 h) was 82.5%. For the same molecule, the “Wi / W0” value (human muscle enolase; 3 h) was 80.1%, the “Wi / K(2)i” value (human muscle enolase; relative to unmodified enolase control K2 at same time, 0 h) was 118.3% and the “Wi / K(2)i” value (human muscle enolase; [1]) was 113.2%. For the same molecule, the “Wi / K(2)i” value (human muscle enolase; [2]) was 117.3%, the “Wi / K(2)i” value (human muscle enolase; [3]) was 120.1% and the “activity of the glycated enzyme relative to unmodified control test” value (human muscle enolase; in the presence of entanglement elements, throughout the experiment (0-3 h)) was 113%-120. The “decrease in specific activity” value (human muscle enolase; sample K1, after 3 hours of glycation, without entanglement elements) was “approx. 28%”.
